# ChEMBL document CHEMBL1148797, “Structure-activity relationships in the binding of chemically derivatized CD4 to gp120 from human immunodeficiency virus” (J Med Chem, 2007)
# Assay: Inhibition of wild type HIV YU2 gp120 to CD4 binding
# Design: species or system Human immunodeficiency virus
row,IC50,SMILES
1,3.58 µM,O=C(O)c1cc(SSc2ccc([N+](=O)[O-])c(C(=O)O)c2)ccc1[N+](=O)[O-]
2,3.22 µM,CCN1C(=O)C=CC1=O [N-ETHYLMALEIMIDE]
